{"source": "patent US20250025451A1", "about": "“TREATMENT OF CANCER WITH KDM4 INHIBITORS” (Celgene Corporation, priority 2021, published 2025)", "key": {"[1]": {"test_system": "PA0165F patient-derived pancreatic cancer organoid model", "test": "organoid colony formation and viability assay, PA0165F", "format": "cell-based, human", "procedure": "(§1) The IC50 values for Compound 1 inhibition of colony formation and viability were determined for the patient-derived colon cancer organoid models: SU60, T002C, SU62, SU34, SU103, T03SC, and SU106, patient-derived pancreatic cancer organoid models PA016SF, PA0143F, T016P, and T028P, and a patient-derived breast cancer organoid model FS5S3.\n(§2) Colony formation and viability assays were performed in multiwell plates seeded with organoids using an in vitro culture system composed of a Matrigel layer, media containing a defined set of growth factors, and co-culture with Wnt3 A-secreting mouse embryonic fibroblasts. Assays were initiated by adding either DMSO as a negative control, or an inhibitor panobinostatat 100×IC50 concentration as a positive control, or serially diluted Compound 1. The cultures were incubated for 168 or 144 hours after which the number of viable organoids in each test well was assessed respectively using one of two detection methods: CTG or staining with calcein-AM followed by imaging and colony counting. Colony count or viability of cells treated with compound 1 was expressed as a percent of the negative control. Aggregated Percent of Control values were plotted against the corresponding Compound 1 concentration and the absolute IC50 value was determined from a non-linear regression curve as the concentration where inhibition was 50% of the control."}, "[2]": {"test_system": "SU62 patient-derived colon cancer organoid model", "test": "organoid colony formation assay, SU62", "format": "cell-based, human", "procedure": "as §1, §2"}, "[3]": {"test_system": "T002C patient-derived colon cancer organoid model", "test": "organoid colony formation assay, T002C", "format": "cell-based, human", "procedure": "as §1, §2"}, "PNUTS mRNA": {"test_system": "PNUTS mRNA", "test": "inhibition of PNUTS gene expression by qPCR in MDA-MB-231 cells", "format": "cell-based", "conditions": "Homo sapiens, 24 hours", "procedure": "In a study of the inhibitory effects of Compound 1 on the gene expression of PNUTS, MDA-MB-231 cells were treated for 24 hours and expression levels of PNUTS mRNA in response to Compound 1 treatment were measured by qPCR. The inhibition of PNUTS mRNA was quantified by calculating mean percent change in PNUTS gene expression following the Compound 1 treatment relative to the DMSO-treated control and IC50 value was calculated as concentration where inhibition was half-maximal. The IC50 value was 0.007 μM."}, "[4]": {"test_system": "SU34 patient-derived colon cancer organoid model", "test": "organoid colony formation assay, SU34", "format": "cell-based, human", "procedure": "as §1, §2"}, "[5]": {"test_system": "GXA-3036 gastric adenocarcinoma patient-derived xenograft", "test": "in vivo efficacy, GXA-3036 gastric adenocarcinoma patient-derived xenograft model", "conditions": "GXA-3036 PDX; for Median Tumor Volume Diff. (Day 35): Day 35 minus Day 0; for Median Tumor Volume Diff. (Day 38): Day 38 minus Day 0", "procedure": "The therapeutic in vivo efficacy of Compound 1 was evaluated in SU60 colorectal cancer, KYSE-150 esophageal cancer, COH70 triple-negative breast cancer, GXA-3036 gastric adenocarcinoma and OCI-LY19 Diffuse Large B-Cell Non-Hodgkin's Lymphoma xenograft models. In all studies, efficacy was determined based on percent tumor growth inhibition (TGI), differences in mean tumor growth, and statistical assessment of differences in net tumor volume distributions on the day of TGI analysis between control and treated animals. Tolerability was assessed based on differences in mean body weights between control and treated animals over the course of the study.\nThe in vivo efficacy and tolerability of Compound 1, administered orally as the lysine salt form suspended in a vehicle comprised of 5% 2-hydroxypropyl-beta-cyclodextrin (HPBCD) in 50 mM phosphate buffer (pH 7.4), were evaluated in female immunodeficient NMRI-Foxn1nu mice using the subcutaneous gastric adenocarcinoma GXA-3036, a moderately differentiated intestinal type (based on Lauren's criteria) PDX model of Asian origin. Each mouse was inoculated subcutaneously in the right flank with a GXA-3036 tumor fragment (3 to 4 mm edge length). When the average tumor size reached ˜109 mm3, test animals were randomized into 5 groups consisting of 8 mice per group and treatments were initiated. Control mice received 5% HPBCD in 50 mM phosphate buffer (pH 7.4) vehicle PO 3 on/4 off. Treated mice received the Compound 1 lysine salt form in vehicle at 5, 15, or 50 mg/kg on the same schedule or at 22.5 mg/kg 2 on/5 off. One control animal, classified as moribund, was euthanized on Day 17 and was censored from analysis. Individual tumors were measured twice weekly in two dimensions using a caliper, and the tumor volumes (TV) in mm3 were calculated using the formula: TV=0.5 a×b2, where a and b are the long and short diameters in mm, respectively. Mean tumor volumes±SEM were calculated and plotted versus days of dosing (FIG. 14 left panel). Body weights were measured twice weekly. Body weights±SEM were calculated and plotted versus days of dosing (FIG. 14 right panel).\nTGI was determined on Days 35 and 38 as (1−Difftreated/Diffcontrol)×100. The differences in median net tumor volumes on the days of TGI analysis for treated versus control animals were evaluated statistically using the non-parametric Kruskal-Wallis test followed by Dunn's multiple comparisons test. The reported adjusted p-values are for both days of TGI analysis where a calculated probability (p)≤0.05 was considered statistically significant."}, "[6]": {"conditions": "15 mg/kg PO 3 on/4 off, 15 mg/kg"}, "[7]": {"conditions": "22.5 mg/kg PO 2 on/5 off, 22.5 mg/kg"}, "[8]": {"conditions": "50 mg/kg PO 3 on/4 off, 50 mg/kg"}}, "note": "pIC50: −log10 of the molar value."}
{"smiles": "CC(C)c1ccc(N(C)c2ccc3c(c2)OCC[C@H]3CNc2cnccc2C(=O)O)cc1", "note": "[Compound 1, 3-({[(4R)-7-{methyl[4-(propan-2-yl)phenyl]amino}-3,4-dihydro-2H-1-benzopyran-4-yl]methyl}amino)pyridine-4-carboxylic acid]", "values": [{"measurement": "pIC50", "setting": "[1]; Homo sapiens, PA0165F pancreatic carcinoma model", "value": "> 7.52"}, {"measurement": "pIC50", "setting": "[1]; PA0165F human pancreatic carcinoma organoid, 144 hrs, Colony Counts", "value": 7.80}, {"measurement": "pIC50", "setting": "[1]; PA0165F human pancreatic carcinoma organoid, 168 hrs, CTG", "value": 7.54}, {"measurement": "pIC50", "setting": "[2]; Homo sapiens, SU62 colorectal carcinoma model", "value": "> 6.82"}, {"measurement": "pIC50", "setting": "[2]; SU62 human colorectal carcinoma organoid, 144 hrs, Colony Counts", "value": 6.83}, {"measurement": "pIC50", "setting": "[3]; Homo sapiens, T002C colorectal carcinoma model", "value": "> 6.82"}, {"measurement": "pIC50", "setting": "[3]; T002C human colorectal carcinoma organoid, 144 hrs, Colony Counts", "value": 7.66}, {"measurement": "pIC50", "setting": "PNUTS mRNA", "value": 8.15}, {"measurement": "pIC50", "setting": "[4]; Homo sapiens, SU34 colorectal carcinoma model", "value": "< 5.00"}, {"measurement": "pIC50", "setting": "[4]; SU34 human colorectal carcinoma organoid, 144 hrs, Colony Counts", "value": "< 5.00"}, {"measurement": "tolerability (mean body weights)", "setting": "[5]; female NMRI-Foxn1nu mice, all regimens", "value": "well-tolerated"}, {"measurement": "Median Tumor Volume Day 35", "setting": "[5]; female NMRI-Foxn1nu mice, lysine salt 5 mg/kg (free acid equivalents) PO 3 on/4 off", "value": 391, "unit": "mm^3"}, {"measurement": "Median Tumor Volume Day 35", "setting": "[5]; female NMRI-Foxn1nu mice, lysine salt 15 mg/kg (free acid equivalents) PO 3 on/4 off", "value": 278, "unit": "mm^3"}, {"measurement": "Median Tumor Volume Day 35", "setting": "[5]; female NMRI-Foxn1nu mice, lysine salt 22.5 mg/kg (free acid equivalents) PO 2 on/5 off", "value": 447, "unit": "mm^3"}, {"measurement": "Median Tumor Volume Day 35", "setting": "[5]; female NMRI-Foxn1nu mice, lysine salt 50 mg/kg (free acid equivalents) PO 3 on/4 off", "value": 371, "unit": "mm^3"}, {"measurement": "Median Tumor Volume Day 38", "setting": "[5]; 5 mg/kg PO 3 on/4 off", "value": 460, "unit": "mm^3"}, {"measurement": "% TGI (Day 35)", "setting": "[5]; 5 mg/kg PO 3 on/4 off, 5 mg/kg", "value": 52, "unit": "%"}, {"measurement": "Median Tumor Volume Diff. (Day 35)", "setting": "[5]; 5 mg/kg PO 3 on/4 off", "value": 282, "unit": "mm^3"}, {"measurement": "% TGI (Day 38)", "setting": "[5]; 5 mg/kg PO 3 on/4 off, 5 mg/kg", "value": 43, "unit": "%"}, {"measurement": "Median Tumor Volume Diff. (Day 38)", "setting": "[5]; 5 mg/kg PO 3 on/4 off", "value": 351, "unit": "mm^3"}, {"measurement": "Median Tumor Volume Day 38", "setting": "[5]; 15 mg/kg PO 3 on/4 off", "value": 298, "unit": "mm^3"}, {"measurement": "% TGI (Day 35)", "setting": "[5]; [6]", "value": 71, "unit": "%"}, {"measurement": "Median Tumor Volume Diff. (Day 35)", "setting": "[5]; 15 mg/kg PO 3 on/4 off", "value": 169, "unit": "mm^3"}, {"measurement": "% TGI (Day 38)", "setting": "[5]; [6]", "value": 69, "unit": "%"}, {"measurement": "Median Tumor Volume Diff. (Day 38)", "setting": "[5]; 15 mg/kg PO 3 on/4 off", "value": 189, "unit": "mm^3"}, {"measurement": "Median Tumor Volume Day 38", "setting": "[5]; 22.5 mg/kg PO 2 on/5 off", "value": 470, "unit": "mm^3"}, {"measurement": "% TGI (Day 35)", "setting": "[5]; [7]", "value": 42, "unit": "%"}, {"measurement": "Median Tumor Volume Diff. (Day 35)", "setting": "[5]; 22.5 mg/kg PO 2 on/5 off", "value": 338, "unit": "mm^3"}, {"measurement": "% TGI (Day 38)", "setting": "[5]; [7]", "value": 41, "unit": "%"}, {"measurement": "Median Tumor Volume Diff. (Day 38)", "setting": "[5]; 22.5 mg/kg PO 2 on/5 off", "value": 361, "unit": "mm^3"}, {"measurement": "Median Tumor Volume Day 38", "setting": "[5]; 50 mg/kg PO 3 on/4 off", "value": 403, "unit": "mm^3"}, {"measurement": "% TGI (Day 35)", "setting": "[5]; [8]", "value": 55, "unit": "%"}, {"measurement": "Median Tumor Volume Diff. (Day 35)", "setting": "[5]; 50 mg/kg PO 3 on/4 off", "value": 262, "unit": "mm^3"}, {"measurement": "% TGI (Day 38)", "setting": "[5]; [8]", "value": 52, "unit": "%"}, {"measurement": "Median Tumor Volume Diff. (Day 38)", "setting": "[5]; 50 mg/kg PO 3 on/4 off", "value": 294, "unit": "mm^3"}]}
